{"source": "patent US9034906B2", "about": "“EP4 agonist” (Asahi Glass Company, Limited, priority 2008, dated 2015)", "key": {"human EP4": {"target": "T1, human EP4 (Homo sapiens, UniProt P35408)", "T1 construct": "expressed in transfected cells; host or cells: COS-7 (membranes)", "T1 sequence (P35408 whole entry)": "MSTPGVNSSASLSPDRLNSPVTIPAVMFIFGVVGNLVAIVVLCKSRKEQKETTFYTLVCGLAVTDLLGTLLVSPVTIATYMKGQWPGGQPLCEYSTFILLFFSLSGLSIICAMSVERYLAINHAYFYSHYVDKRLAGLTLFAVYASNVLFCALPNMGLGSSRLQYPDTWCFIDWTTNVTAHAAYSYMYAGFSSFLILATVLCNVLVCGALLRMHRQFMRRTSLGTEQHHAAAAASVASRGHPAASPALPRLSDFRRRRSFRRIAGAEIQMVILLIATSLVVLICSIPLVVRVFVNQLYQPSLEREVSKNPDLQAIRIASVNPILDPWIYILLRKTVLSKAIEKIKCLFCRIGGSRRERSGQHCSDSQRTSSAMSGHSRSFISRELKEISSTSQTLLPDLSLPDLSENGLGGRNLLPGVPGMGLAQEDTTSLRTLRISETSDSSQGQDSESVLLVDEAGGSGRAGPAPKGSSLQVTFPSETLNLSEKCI", "assay": "Receptor affinity, tritium-labeled PGE2 binding to membranes of transfected COS-7 cells", "details": "binding affinity ratio", "procedure": "PG receptor affinity of compound F and compound J of the present invention was evaluated. Compound F used was one synthesized in Example 9, and compound J was prepared by separating and purifying the compound synthesized in Example 14 with a column (the same preparations were used in the following Examples). COS-7 cells were transfected with the genes of mouse EP4, human EP1-4 or human IP to overexpress the receptor and then the cell membranes were collected. […] The dissociation constant Kd value was obtained and inhibition constant Ki value of each test compound was determined in a conventional method."}, "[1]": {"tested_on": "dextran sodium sulfate-induced colitis", "assay": "Dextran sodium sulfate-induced colitis model in mice (C57BL/6)", "assay_type": "in vivo, mouse", "details": "C57BL/6 mice, DSS, oral 0.3 and 1 mg/kg once a day", "procedure": "Whether or not an IP agonist has an effect on such colitis model was determined using a selective IP agonist, BPS.\nFemale C57BL/6 mice (6 weeks old, Japan SLC) were purchased, acclimated for 1 week and used for the study. Except the normal group, the mice were allowed to freely drink a 3 or 2 w/v % DSS (MP Biochemicals, Lot No. 5653H and 5464H, respectively) solution for 1 week to induce colitis. BPS at a dose of 0.3 mg/kg and compound F at doses of 0.3 and 1 mg/kg were orally administered once a day, daily, from the start day of DSS drinking (day 0) to one day before autopsy (day 9). To the control group was orally administered a solvent (1 vol % ethanol solution) at 10 mL/kg in the same manner. The consistency of the stool was graded from score 0 to 4, with normal (0), partly loose stool (1), loose stool (2) and diarrhea (4). The blood feces was also graded from score 0 to 4, with normal (0), partly blood feces (1), blood feces (2) and blood feces plus proctorrhagia (4). The sum of both grades was defined as the stool score (maximum 8). Furthermore, the length of the large intestine was measured in the same manner as in Example 23. Six to 10 animals were used for each group, and the results are shown in average±standard deviation."}, "T cell transfer colitis": {"tested_on": "T cell transfer colitis", "assay": "CD4+CD25- T cell transfer colitis model in mice", "assay_type": "in vivo, mouse", "details": "C.B-17/Icr-scid mice, oral 1 mg/kg once a day", "description": "The effect on Crohn's disease, another type of inflammatory bowel disease, was studied. T cell transfer model is well known as a Crohn's disease model, which develops chronic […] or enteritis (see: References F, G, H). In addition, it can also be regarded as an animal model of intestinal Behcet's disease or simple ulcer, suffering from similar intestinal ulcer accompanied by activation of T cells (see: References I, J).\nFemale BALB/cA Jcl mice, 6 weeks old, body weight 19-23 g (CLEA Japan, Inc.) and female C.B-17/Icr-scid mice (6 weeks old, CLEA Japan, Inc.) were purchased, acclimated for 1 week and used for the study.\nAfter laparotomy under ether anesthesia, BALB/cA Jcl mice were exsanguinated to death through the abdominal aorta and caudal vena cava, and the spleen was isolated. Splenocytes were prepared from the spleen and then CD4^+CD25^− T cells were prepared with a CD4^+ T cell Isolation Kit (No. 130-090-860, Milky Biotech Co., Ltd.) and CD25-Biotin antibody (No. 130-092-569, Milky Biotech Co., Ltd.). The cells were separated using the autoMACS Separator (Milky Biotech Co., Ltd.). The separated CD4^+CD25^− T cells were suspended in physiological phosphate buffer solution, and 2.5×10^5 cells per animal were intraperitoneally administered to C.B-17/Icr-scid mice to induce colitis.\nOne mg/kg of compound F or prednisolone was initially administered at 5 hr before transfer of CD4^+CD25^− T cells, and orally administered thereafter once a day, daily, for 20 days. To the control group was orally administered a solvent (1 vol % ethanol solution) at 10 mL/kg. A clinical endpoint was the sum of stool consistency score (0-5), fecal occult blood score (0-4) and body weight decrease score (0-5), termed as the Disease Activity Index score (hereinafter to be abbreviated as DAI score: highest score 14). The stool consistency score was graded for the hardness of stool as normal (0), slightly loose (1), somewhat loose (2), loose (3), considerably loose (4) and diarrhea (5). The fecal occult blood score was evaluated in the same manner as in Example 23. The body weight decrease score was graded for the changes in the body weight as increase (0), decrease of less than 3% (1), decrease of not less than 3% and less than 6% (2), decrease of not less than 6% and less than 9% (3), decrease of not less than 9% and less than 12% (4), and decrease of not less than 12% (5). Eight to 10 mice were used for each group and the results were expressed as average."}, "[2]": {"assay": "Effect on blood pressure and heart rate in mice", "assay_type": "in vivo, mouse", "details": "ICR mice, intravenous 0.01 mg/kg, isoflurane anesthesia", "procedure": "Male ICR mice (5 weeks old, Japan SLC) were purchased, acclimated for 6 days and used for the test. The animals were treated and measured under isoflurane inhalation anesthesia (anesthesia introduced at 2.5%, maintained at 1.8-2.1%), while body temperature was kept at 37° C. with a Heat Controller (ATC-402, Unique Medical Co., Ltd.). A catheter for administration of test compounds was inserted into the left femoral vein, and another catheter was inserted into the right femoral artery and connected to a pressure transducer to record each parameter of hemodynamics.\nCompound F, the carboxylate form of compound F and BPS were intravenously administered at a dose of 0.01 mg/5 mL/kg, and the effect on the mean blood pressure and heart rate was evaluated with computer software for the analysis of hemodynamics (Fluclet, Dainippon Sumitomo Pharma Co., Ltd.). To the control group was intravenously administered a solvent (1.2% ethanol solution) at 5 mL/kg in the same manner. The results are expressed as a ratio of change in each parameter before and after the drug administration. Three to 6 animals were used for each group, and the results were expressed as average±standard deviation."}, "[3]": {"tested_on": "concanavalin A-induced hepatitis", "assay": "Concanavalin A-induced hepatitis model in mice, prophylactic", "assay_type": "in vivo, mouse", "details": "BALB/c mice, oral 1 hr before Con A; compound F 1 mg/10 mL/kg, prednisolone 5 mg/10 mL/kg", "procedure": "The prophylactic effect of compound F on hepatitis was investigated using concanavalin A (hereinafter Con A)-induced hepatitis model.\nBALB/c mice (female, 7 weeks old, Japan SLC) were purchased, acclimated for 1 week and used for the study. Except the no-induction group, Con A (type IV, Sigma-Aldrich) dissolved in saline was administered from the tail vein of the mice at a dose of 12.5 mg/10 mL/kg to induce hepatitis. Twenty hr later, the mice were subjected to laparotomy under ether anesthesia. A 0.5 mL of blood sample was collected from the caudal vena cava and heparinized plasma was obtained to measure plasma ALT and AST activities. Test substances were compound F (1 mg/10 mL solution), prednisolone (Nacalai Tesque, 5 mg/10 mL suspension (with 0.5 w/v % methylcellulose)) and water for injection (administered to the control group), which were orally administered at a volume of 10 mL/kg 1 hr before Con A injection. Seven to 9 animals were used for each group. After logarithmic transformation of the data, one-way analysis of variance was performed for statistical evaluation."}}}
{"compound": "Cc1cccc([C@@H](C)[C@H](O)/C=C/[C@@H]2[C@@H]3[C@H](C[C@H]2O)O/C(=C\\CCCc2nnn[nH]2)C3(F)F)c1", "note": "[Compound F, 4-[(Z)-(1S,5R,6R,7R)-6-[(1E,3R,4R)-3-hydroxy-4-(m-tolyl)-1-pentenyl]-7-hydroxy-2-oxa-4,4-difluoro-bicyclo[3.3.0]octan-3-ylidene]-1-(tetrazol-5-yl)butane]", "values": [{"measurement": "Affinity for human EP4 higher than to human EP1, EP2 and EP3", "setting": "human EP4", "result": "≥ 60", "unit": "fold"}, {"measurement": "Affinity for human EP4 higher than to human IP", "setting": "human EP4", "result": "≥ 100", "unit": "fold"}, {"measurement": "Effect on the onset of colitis (stool score, colon shortening)", "setting": "[1]", "result": "superior prophylactic effect"}, {"measurement": "DAI score", "setting": "T cell transfer colitis", "result": "comprehensively superior to prednisolone"}, {"measurement": "Effect on body weight decrease score", "setting": "T cell transfer colitis", "result": "prevented the increase in the body weight decrease score almost completely"}, {"measurement": "Effect on fecal occult blood score", "setting": "T cell transfer colitis", "result": "suppressed the increases in both the stool consistency score and the fecal occult blood score by almost half"}, {"measurement": "Effect on stool consistency score", "setting": "T cell transfer colitis", "result": "suppressed the increases in both the stool consistency score and the fecal occult blood score by almost half"}, {"measurement": "Effect on heart rate", "setting": "[2]", "result": "little effect"}, {"measurement": "Maximum decrease ratio of mean blood pressure", "setting": "[2]", "result": 16.2, "unit": "%"}, {"measurement": "Effect on increase of plasma ALT and plasma AST activities", "setting": "[3]", "result": "significantly and strongly suppressed the increase"}]}
